Laboratory results: US6306853A, “1,4-Dihydropyridine derivatives” (Nikken Chemicals Co., Ltd., priority 1998, dated 2001)

Key:
[1] = system: thoracic aorta of the rat; test: Action easing KCl contraction in rat arteries; conditions: rat thoracic aorta ring, 50 mM KCl, compound 10^-6 M; read-out: Inhibitory rate of hyperpotassium contraction at 10^-6 M
Protocol: Action Easing KCl Contraction in Rat Arteries
The specimen was stabilized for approximately 60 minutes, then a potassium chloride solution was added to the Magnus tube to give a final concentration of 50 mM. The positive control compound or the compound of the present invention was cumulatively added to become 1×10^-6 M when the contraction reaction occurring at that time reached equilibrium. The contraction force was recorded by an FD-pickup (Nihon Koden) via a polygraph (Nihon Koden).

[2] = system: VCR resistant murine leukemia (P388/VCR) cells; test: In vivo overcoming of resistance in VCR resistant murine leukemia (P388/VCR) bearing mice, etoposide with compound 20 mg/kg; set-up: species or system CDF1 female mice; conditions: VP-16 3 mg/kg + compound 20 mg/kg, i.v. once per day for 5 days; for Rate of prolongation of life T/C: vs control
Protocol: In Vivo Test of Action Suppressing Proliferation of Cancer Cells by Combined Administration of Anti-cancer Drug Etoposide
Effect of Overcoming Resistance to an Anti-cancer Drug for VCR Resistant Murine Leukemia Cell Bearing Mice
1.2×10^5 VCR resistant murine leukemia (P388/VCR) cells were transplanted intravenously into groups of 5-6 CDF1 female mice, then the compound of the present invention (20 mg/kg) and Etoposide (VP-16) (3 mg/kg) were administered intravenously once per day for 5 days, after dissolving them in a physiological salt solution containing a small amount of hydrochloric acid. The observation was started from the next day. The number of survival days were found and the life prolonging rate (T/C) with respect to the controls was found. The effect in overcoming resistance to an anti-cancer drug (T/V) was found by the following formula.
Effect of overcoming resistance to the anti-cancer drug (T/V) %
=[(Rate of prolongation of life using VP-16 and the present compound (T/C))/(Rate of prolongation of life using VP-16 alone (T/C))]×100

[3] = system: KB/VJ 300 cells; test: Degree of resistance to ADM (ratio of ADM LD50 concentrations) in multi-drug resistant KB/VJ 300 cells on combined administration of doxorubicin and test compound; assay type: cell-based, human; conditions: VJ-300 (resistant) cells; ADM + test compound 1 μg/ml; relative to ADM alone in KB = 1
Protocol: In Vitro Test of Action Suppressing Proliferation of Cancer Cells combined administration of Doxorubicin
(§1) Human rhinopharynx cancer derived KB cells (i.e., sensitive cells) and their multi-drug resistant clone KB/VJ 300 cells (i.e., resistant cells) were used as the test cells. As the incubation solutions, use was made of 10% fetal calf serum (Flow Laboratories) and Eagle MEM medium (Nissui Seiyaku) containing 0.292 mg/ml of L-glutamine (Flow Laboratories). The tests of the action for overcoming resistance to anti-cancer drugs or action for increasing the effect of the anti-cancer drug with the combined administration of the anti-cancer drug doxorubicin (i.e., adriamycin, ADM) and the test compound were performed as follows:
The test cells were suspended in incubation solutions and adjusted to a cell density of about 200 cells/ml. The cell suspensions were injected in 2 ml amounts into petri dishes and were incubated in a CO2 gas incubator (5% CO2, 95% air) at 37° C. for 24 hours. Then, 5-10 μl of a predetermined concentration of the aqueous ADM solution and a predetermined concentration of a DMSO solution of the test compound were added, then the incubation was continued for a further 6 days. After the end of the incubation, the result was immobilized with methanol, Tripan blue stained and measured for the number of colonies per dish. […]

[4] = system: KB/VJ 300 cells; test: Degree of resistance to VCR in multi-drug resistant VJ-300 cells on combined administration of vincristine and test compound; assay type: cell-based, human; conditions: relative to KB = 1
Protocol: as §1, with “action for increasing the effect of the anti-cancer drug with the combined administration of the anti-cancer drug doxorubicin (i.e., adriamycin, ADM) and the test compound were performed as follows:” left out
The test cells were suspended in incubation solutions and adjusted to a cell density of about 200 cells/ml. The cell suspensions were injected in 2 ml amounts into petri dishes and were incubated in a CO2 gas incubator (5% CO2, 95% air) at 37° C. for 24 hours. […] After the end of the incubation, the result was immobilized with methanol, Tripan blue stained and measured for the number of colonies per dish. The results were used to prepare a volume-reaction curve. From this, the ADM concentration of the 50% cell survival rate (LD50 ) was calculated and the effect for overcoming resistance to anti-cancer drugs and the effect for increasing the effect of anti-cancer drugs were judged. The results are shown in Table 12 to Table 14 using the concentration of LD50 of ADM in the ADM alone group when KB cells were used as the resistance degree 1 and calculating the resistances of the following LD50 concentrations as relative ratios. […]

[5] = Acute toxicity test in mice, intraperitoneal; conditions: mouse, in vivo, ip, 7 days observation
Protocol: Animals used: ddY male mice (SLC Japan), 4-5 weeks old, three to five mice per group.
Test method: The compound of the present invention was suspended in 0.5% sodium carboxymethylcellulose (CMC-Na) containing 0.1% Tween 80. It was administered to the mice intraperitoneally in amounts of 250, 500 or 1000 mg/kg in groups of three to five mice. The survival of the animals was observed up until 7 days after administration and LD50 value was calculated according to a Probit method.

[6] = system: multidrug resistance; conditions: literature statement in words; cited from earlier work

Compound | inhibition at 1 µM [1] [%] | Average days of survival [2] [days] | Rate of prolongation of life T/C [2] [%] | further results
CCOC(=O)C1=C(c2ccc(-n3c(C)nc4cnccc43)cc2)NC(C)=C(C(=O)OCC#Cc2cccnc2)C1/C=C/c1ccccc1OC (stereo not shown) [Compound 14, 4-[(E)-2-(2-Methoxyphenyl)ethenyl]-6-methyl-2-[4-(2-methylimidazo[4,5-c]pyridin-1-yl)phenyl]-1,4-dihydropyridin-3,5-dicarboxylate 3-ethylester 5-[3-(3-pyridyl)-2-propynyl]ester] | 0 | 15.7 | 154 | 
6-Methyl-2-[4-(2-methylimidazo[4,5-b]pyridin-1-yl)phenyl]-4-pentyl-1,4-dihydropyridin-3,5-dicarboxylate 3-ethylester 5-[3-(3-pyridyl)2-propynyl]ester [Compound 52] |  |  |  | Degree of resistance for ADM, VJ-300 [3]: 1.60
CC[C@]1(O)C[C@H]2CN(CCc3c([nH]c4ccccc34)[C@@](C(=O)OC)(c3cc4c(cc3OC)N(C=O)[C@H]3[C@@](O)(C(=O)OC)[C@H](OC(C)=O)[C@]5(CC)C=CCN6CC[C@]43[C@@H]65)C2)C1 [VCR, vincristine] |  |  |  | Degree of resistance for VCR, VJ-300 (VCR alone, control) [4]: 903-970
CCOC(=O)C1=C(c2ccc(-n3c(C)nc4cnccc43)cc2)NC(C)=C(C(=O)OCC#Cc2cccnc2)C1Cc1ccccc1 (stereo not shown) [Compound 6, 4-Benzyl-6-methyl-2-[4-(2-methylimidazo[4,5-c]pyridin-1-yl)phenyl]-1,4-dihydropyridin-3,5-dicarboxylate 3-ethylester 5-[3-(3-pyridyl)-2-propynyl]ester] | 7.5 | 16.0 | 174 | 
CCCCCC1C(C(=O)OC(C)C#Cc2cccnc2)=C(C)NC(c2ccc(-n3c(C)nc4cnccc43)cc2)=C1C(=O)OCC (stereo not shown) [Compound 22, 6-Methyl-2-[4-(2-methylimidazo[4,5-c]pyridin-1-yl)phenyl]-4-pentyl-1,4-dihydropyridin-3,5-dicarboxylate 3-ethylester 5-[1-methyl-3-(3-pyridyl)-2-propynyl]ester] | 0 | 14.6 | 159 | LD50 at 168 h [5]: > 1000 mg/kg
CCOC(=O)C1=C(c2ccc(-n3c(C)nc4cnccc43)cc2)NC(C)=C(C(=O)OCC#Cc2cccnc2)C1CCc1ccccc1 (stereo not shown) [Compound 9, 6-Methyl-2-[4-(2-methylimidazo[4,5-c]pyridin-1-yl)phenyl]-4-(2-phenylethyl)-1,4-dihydropyridin-3,5-dicarboxylate 3-ethylester 5-[3-(3-pyridyl)-2-propynyl]ester] |  | 15.0 | 163 | LD50 at 168 h [5]: > 1000 mg/kg
CCOC(=O)C1=C(c2ccc(-n3ccnc3)cc2)NC(C)=C(C(=O)OCC#Cc2cccnc2)C1/C=C/c1ccccc1 (stereo not shown) [Compound 24, 2-[4-(1-Imidazolyl)phenyl]-6-methyl-4-[(E)-2-phenylethenyl]-1,4-dihydropyridin-3,5-dicarboxylate 3-ethylester 5-[3-(3-pyridyl)-2-propynyl]ester] |  |  |  | LD50 at 168 h [5]: > 1000 mg/kg
COC(=O)C1=C(C)NC(C)=C(C(=O)OCCN(C)Cc2ccccc2)C1c1cccc([N+](=O)[O-])c1 (stereo not shown) [nicardipine, reference compound] | 100 |  |  | effect of combined administration with an anti-cancer drug on multidrug resistance [6]: effective
6-Methyl-2-[4-(2-methylimidazo[4,5-b]pyridin-1-yl)phenyl]-4-(2-phenylethyl)-1,4-dihydropyridin-3,5-dicarboxylate 3-ethylester 5-[3-(3-pyridyl)-2-propynyl]ester [Compound 51] |  |  |  | Degree of resistance for ADM, VJ-300 [3]: 1.43
CCOC(=O)C1=C(c2ccc(-n3c(C)nc4cnccc43)cc2)NC(C)=C(C(=O)OCC#Cc2cccnc2)C1C (stereo not shown) [Compound 1, 4,6-dimethyl-2-[4-(2-methylimidazo[4,5-c]pyridin-1-yl)phenyl]-1,4-dihydropyridin-3,5-dicarboxylic acid 3-ethylester 5-[3-(3-pyridyl)-2-propynyl]ester] | 0 | 13.6 | 148 | 
CCOC(=O)C1=C(c2ccc(-n3c(C)nc4cnccc43)cc2)NC(C)=C(C(=O)OCC#Cc2cccnc2)C1/C=C/c1ccco1 (stereo not shown) [Compound 16, 4-[(E)-2-(2-Furyl)ethenyl]-6-methyl-2-[4-(2-methylimidazo[4,5c]pyridin-1-yl)phenyl]1,4-dihdropyridin-3,5-dicarboxylate 3-ethylester 5-[3-(3-pyridyl)-2-propynyl]ester] | 0 | 15.0 | 147 | 
CCOC(=O)C1=C(c2ccc(-n3c(C)nc4cnccc43)cc2)NC(C)=C(C(=O)OCC#Cc2cccnc2)C1CCc1ccsc1 (stereo not shown) [Compound 17, 6-Methyl-2-[4-(2-methylimidazo[4,5-c]pyridin-1-yl)phenyl]-4-[2-(3-thienyl)ethyl]-1,4-dihydropyridin-3,5-dicarboxylate 3-ethylester 5-[3-(3-pyridyl)2-propynyl]ester] | 0 | 13.4 | 146 | 
